Reference: patent EP0663826B1, “AMINO ACIDS CONTAINING PARENTERAL FORMULATIONS FOR THE TREATMENT OF HYPOTENSION AND RELATED PATHOLOGIES” (BOARD OF REGENTS THE UNIVERSITY OF TEXAS SYSTEM, priority 1991, dated 1993)

System: hypotension associated with the administration of TNF in the dog
Experiment: TNF-induced hypotension in the dog
Format: in vivo, dogs
Conditions: L-arginine to previously untreated normotensive dogs
Description: Recombinant human TNF, specific activity 2 x 10^7 units/mg, was from the Dainippon Chemical Corporation, Tokyo, Japan. TNF was administered at a dose of 10 µg//kg in a volume of 10 ml of phosphate buffered saline containing 17 mg/ml of dog albumin. […] Arginine was obtained from Sigma Chemical Company, St. Louis, Mo.
Four conditioned mongrel dogs, 2 males and 2 females, weighing 28 to 30 kg, were studied. Care of the animals were in accordance with the recommendations of the American Association for Accreditation of Laboratory Animals [DHEW(DHHS) publication no. (NIH) 78-23, revised, 1978]. On the day of the experiment, the dogs were fasted overnight. They were anesthetized with phenobarbital (25 mg/kg). The animals were then intubated orally with a #10 fr. endotracheal tube and ventilated with a Harvard pump ventilator at a rate of 14 breaths per minute and a tidal volume of 15 ml/kg. An arterial line was percutaneously placed in the femoral artery on the day of the experiment.
Mean (electronic) and phasic systemic arterial pressures (SAP) were continuously recorded on a Hewlett-Packard recording system (model 7758B) using strain gauge manometers (Hewlett-Packard model 1290A) which were connected to the arterial line. Heart rate (HR) was determined from an EKG tracing and continuously recorded on the Hewlett-Packard recording system. Oxyhemoglobin saturation (SaO2) was obtained using a pulse oximeter (BIOX 111, Boulder, CO). Continuous time-series records of SAP, HR, and SaO2 were obtained using a Lab Master analog-to-digital convertor (16 channel, 12 bit, 30 kHz; Scientific Solutions, Inc.) sampling at 55 Hz and storing the 6 sec averages on a magnetic disk.

N=C(N)NCCC[C@H](N)C(=O)O [L-arginine]
effect on blood pressure: not affected
